# Reference: patent US11001584B2, “Polymorphs” (SYNGENTA PARTICIPATIONS AG, priority 2016, dated 2021)
# Assay: Stability of polymorphs: equal amounts of both polymorphs stirred in IPA, form determined by DSC and high throughput pXRD
# Format: physicochemical
# Details: 24 hours
# Method: Equal amounts of the polymorph of the invention and the Reference Form A polymorph were stirred in IPA at a range of temperatures. After 24 hours, the crystals were isolated and dried and their polymorphic form determined by DSC and high throughput pXRD.
Compound,DSC curves of the isolated crystals (polymorphic form present) (equal amounts of polymorph of the invention and Reference Form A stirred in IPA at a range of temperatures),"Powder XRD patterns of the isolated crystals (polymorphic form present) (equal amounts of polymorph of the invention and Reference Form A stirred in IPA, room temperature, 40° C. and 50° C.)","Relative polymorphic stability (stirred with Reference Form A in IPA, room temperature up to 50° C.)"
CCOC(=O)OC1=C(c2c(C)cc(Cl)cc2C)C(=O)N(C)C12CCN(OC)CC2 [Reference Form A],marked reduction in the presence of Reference Form A,reflections characteristic of Reference Form A were absent,–
CCOC(=O)OC1=C(c2c(C)cc(Cl)cc2C)C(=O)N(C)C12CCN(OC)CC2 [polymorph of the invention],–,–,the stable form over the temperature range studied
